# Results taken from US20220304945A1, “METHODS OF TREATING METABOLIC SYNDROME RELATED CONDITIONS USING RETINOIC ACID RECEPTOR AGONISTS” (Cornell University, priority 2014, published 2022).
# “Also recorded” adds a separate entry of the source.
# Key:
# [1] = system: SREBP1, FASN, PPAR-α, CPT1-α, MCP-1, TNF-α, α-SMA mRNA; assay: PCR of kidney genes of lipid metabolism, inflammation and fibrosis in HFD, Ob/Ob and Db/Db mice (Example 23); assay type: in vivo, mouse
# Experimental: Quantitative RT-PCR (Q-PCR)-Q-PCR was performed using SYBR Green PCR master mix on a Bio-Rad MyiQ2 Real Time PCR iCycler (Bio-Rad, Inc. Hercules, Calif.). Gene specific primers (Table 5) were used to amplify mRNA target genes, which were normalized to Hprt internal control genes. cDNA from 3-5 mice per experimental group was analyzed for relative mRNA fold changes, calculated using the Pfaffl method (Pfaffl M W, A new mathematical model for relative quantification in real-time RT-PCR, Nucleic Acids Res. 2001 May 1; 29(9):e45). Relative gene expression values are reported as mean±standard error of the mean (S.E.M) and P-values calculated using one-way analysis of variance followed by Bonferroni multiple comparison test post-hoc analysis.
# Diabetic kidney disease (aka diabetic nephropathy (DN)) frequently occurs in individuals with type 2 diabetes. The causes of DN are unclear but insulin resistance, hyperlipidemia and obesity are implicated because these states can impair renal lipid metabolism leading to the accumulation of free fatty acids (FFA), which can promote renal inflammation, fibrosis and impaired kidney function. There is evidence that transcriptions factors involved in de novo lipid synthesis such as srebpl contribute to the pathogenesis of DN. […] HF-fed mice treated with AC261066 had no increase in mRNA transcripts of SREBP1 and FASN (FIG. 33A).
# We also measured kidney mRNA levels of pro-inflammatory and fibrogenic mediators MCP-1 (aka CCL2), TNF-α, and α-SMA in HFD-fed mice and two genetic mouse models of obesity and diabetes, Ob/Ob and Db/Db mice. MCP-1, TNF-α, and α-SMA are implicated in inflammation and fibrosis in DN and expression of these genes are frequently elevated in models of DN. […] Kidney mRNA transcripts of α-SMA, which contributes to DN fibrosis, was increased 5-6 fold in HFD Ob/Ob and Db/Db mice compared to wt con (FIG. 33D). HFD Ob/Ob and Db/Db mice treated AC261066 had 40-50% reductions in a-SMA transcripts compared to their respective HFD and genetic controls (FIG. 33D).
# [2] = system: RARβ2 mRNA; assay: Semi-quantitative PCR of pancreas, LRAT −/− vitamin A deficient mice; assay type: in vivo, mouse; conditions: treated 8 weeks
# Experimental: FIG. 10. Gene expression of RARβ2 in pancreatic tissue from LRAT −/− vitamin A sufficient mice (VAS, normal control diet), LRAT −/− vitamin A deficient (VAD) mice, and LRAT −/− vitamin A deficient (VAD) mice treated with AC261066 for 8 weeks.
# Semi-Quantitate PCR. Total RNA was extracted from mouse tissues using TRIzol reagent (Life technologies) and (1 μg) was used to synthesize cDNA. cDNA synthesis was performed at 42° C. for 1 h in a final volume of 20 μl using qScript (Quanta, MD). Semi-quantitative PCR were performed Taq DNA polymerase (Invitrogen, CA). Three step PCR was run as follows: 94° C. for 30 s, 58-64° C. for 45 s for primer annealing and 72° C. for 1 min for primer extension. The number of cycles for each primer pair for amplification in the linear range was determined experimentally. PCR products were resolved on 2% agarose gels and visualized by staining with ehtidium bromide. Primers for gene expression used were as follows: […]
# [3] = system: HFD-fed C57/BL6 mice; assay: Acute administration (8 days) to HFD-fed mice: body weight, intake, random glucose, GTT, ITT; assay type: in vivo, mouse
# Experimental: FIG. 31. Acute administration of Retinoic Acid Receptor β (RARβ) agonist AC261066 reverses high fat induced glucose intolerance and insulin resistance. A-C) Body weights, water and food intake of wild type C57/B16 male mice after 3 months of being fed either: a standard chow (13% Kcal/fat) diet (Wt Con, n=4), a high fat (45% Kcal/fat) diet (HFD, n=4) or 3 months of a HFD mice plus 8 days of administration of the RARβ agonist AC261066 (n=4) in their drinking water at a dose of 5.4 mg/Kg BW/day. On day 8 mice were tested for glucose intolerance and insulin resistance. D and E) Random glucose and glucose tolerance test (GTT) of mice described in A. F) Insulin tolerance test of mice described in A.
# Metabolic Measurements-Glucose tolerance was performed using an intraperitoneal glucose tolerance test (GTT) as previously described (Trasino et al., Vitamin A Deficiency Causes Hyperglycemia and Loss of Pancreatic β-Cell Mass, J Biol Chem. 2014 Dec. 1. pii: jbc.M114.616763). […] Tail vein blood glucose was measured at 20, 40, 60 and 120 minutes after injection using a FreeStyle Lite Blood Glucose Monitoring System (Abbott Diabetes Care, Inc. Alameda, Calif.). To determine insulin secretion responses to glucose, serum fractions were isolated between 0-60 minutes post glucose injections and insulin concentrations were measured using an Ultrasensitive Insulin ELISA Kit (Alpco, Inc. Salem, N.H.). […]
# [4] = molecular target: T1, RARβ2 (Homo sapiens, UniProt P10826); conditions: as described in Lund et al. 2005; cited from earlier work
# T1 sequence (P10826 1-448 isoform P10826-2): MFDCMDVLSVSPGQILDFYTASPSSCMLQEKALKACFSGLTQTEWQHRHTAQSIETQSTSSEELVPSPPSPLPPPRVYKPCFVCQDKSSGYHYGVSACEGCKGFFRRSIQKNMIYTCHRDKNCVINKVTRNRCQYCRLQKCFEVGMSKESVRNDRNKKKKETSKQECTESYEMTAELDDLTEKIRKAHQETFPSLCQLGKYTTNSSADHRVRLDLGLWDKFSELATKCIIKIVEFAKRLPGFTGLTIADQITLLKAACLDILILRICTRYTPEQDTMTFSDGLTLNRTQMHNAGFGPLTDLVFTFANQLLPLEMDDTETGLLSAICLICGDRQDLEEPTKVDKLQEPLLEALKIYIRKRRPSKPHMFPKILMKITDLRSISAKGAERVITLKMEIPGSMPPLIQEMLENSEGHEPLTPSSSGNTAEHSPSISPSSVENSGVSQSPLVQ
# [5] = HFD, Ob/Ob and Db/Db mice vs respective untreated
structure (smiles),measurement,setting,value
CCCCOCCOc1nc(-c2ccc(C(=O)O)c(F)c2)sc1C [AC261066],"kidney mRNA transcripts of PPAR-α and CPT1-α, increase vs HFD-fed mice",[1]; HF-fed mice,approximately 2 fold
same,kidney mRNA transcripts of SREBP1 and FASN,[1]; HF-fed mice,no increase
same,reduction in kidney α-SMA transcripts,"[1]; HFD, Ob/Ob and Db/Db mice vs respective controls",40-50%
same,reduction in kidney mRNA transcripts of MCP-1,[1]; [5],40-50%
same,reduction in kidney mRNA transcripts of TNF-α,[1]; [5],40-50%
same,pancreatic RARβ2 mRNA level,[2],increased
same,random glucose levels,[3]; after 24 hours of administration,significant reductions
same,hyperglycemia (glucose intolerance) and insulin resistance,[3]; after 8 days of administration,reverses; also recorded: significant reductions
same,isoform selectivity for the human RARβ2 receptors,[4],highly isoform-selective agonists
